Results published in patent US7670791B1, “Method for the suppression of visceral pain by regulating T-type calcium channel” (Korea Institute of Science and Technology, priority 2001, dated 2010).

Columns and labels:
[1] = system: visceral pain caused by acetic acid in normal mice; assay: Acetic acid-induced visceral pain (writhing test) after mibefradil injection; format: in vivo
Method: The present inventors injected 0.6% acetic acid into the peritoneal cavity of mice to examine the acetic acid-induced visceral pain response. The visceral pain is elicited secondarily to a delayed inflammatory response and induced abdominal stretching and writhing behavior (Gyires and Torma, Arch Int. Pharmacodyn. Ther., 1984, 267:131-140). Mice were placed individually in a transparent home cage (24×18×12 cm) and allowed to acclimate for at least 60 min. Then, 0.6% acetic acid ([…]) was injected into the peritoneum, after which the mice was returned to the testing chamber. The number of abdominal stretches or writhing motions was counted for 20 min. All mice were used only once in this experiment. […]
Particularly, in order to find out how mibefradil, the T-type calcium channel inhibitor functions, mibefreail was dissolved in 0.9% of NaCl at the concentration of 5 mg/ml. The degree of writhing was measured in a visceral pain inducing experiment 20 minutes after the injection of the said mibefradil at the concentration of 1, 10 and 30 mg/kg respectively in peritoneum of the mice.

[2] = inside the body, after peripheral (peritoneal) injection; cited from earlier work

Question: Which “degree of writhing / visceral pain caused by acetic acid” value ([1]; normal (wild-type) mice, mibefradil 1, 10 and 30 mg/kg in peritoneum, 20 minutes before test, 0.6% acetic acid i.p., FIG. 4) does the source give for COCC(=O)O[C@]1(CCN(C)CCCc2nc3ccccc3[nH]2)CCc2cc(F)ccc2[C@@H]1C(C)C [mibefradil, Mibefradil] here?
Answer: induced analgesia

Question: What about the “visceral pain caused by acetic acid” value ([1]; wild-type mice, mibefradil injected in the brain) of the same compound?
Answer: enhanced

Question: And the “passage through the brain barrier” value [2]?
Answer: cannot pass through the brain barrier
